Literature values in patent US20030149010A1, “Combination of an aldosterone receptor antagonist and an HMG CoA reductase inhibitor” (priority 2001, published 2003).

Tests used:
[1] = test system: patients with severe heart failure; conditions: spironolactone added to ACE inhibitor therapy; 1663 patients with severe heart failure
[2] = test system: patients afflicted with congestive heart failure; conditions: coadministered with an ACE inhibitor

CC(=O)S[C@@H]1CC2=CC(=O)CC[C@]2(C)[C@H]2CC[C@@]3(C)[C@@H](CC[C@@]34CCC(=O)O4)[C@H]12 [spironolactone, 17-hydroxy-7α-mercapto-3-oxo-17α-pregn-4-ene-21-carboxylic acid γ-lactone acetate]
reduction in hospitalizations [1]: 35%
reduction in mortality [1]: 30%
effectiveness in congestive heart failure [2]: highly effective in 13 of 16 patients
